Marks after values point to notes of the source that are not given here.

The nature of series [1]: Optical / fluorescence properties (absorption, emission, extinction coefficient, quantum yield, lifetime). It is filed as physicochemical.
The nature of series [2]: Water solubility and hydrophilic nature. To be noted: for solubility in water (in words): water at pH=7, in carboxylate form. The series is classed as physicochemical.
Setting [3] is: asterisk: in water and PBS buffer.

Turning to `COCCOCC#C[B-]1(C#CCOCCOC)n2c(C)cc(C)c2C(c2ccc(I)cc2)=C2C(C)=CC(C)=[N+]21` [Ia-1], in series [1] (in dichloromethane), the Φ was 65%, the ε came out at 90000 M⁻¹ cm⁻¹, the λabs came to 500 nm and the λem is 511 nm.
In the same order, the values of `CCC1=C(C)C2=C(c3ccc(I)cc3)c3c(C)c(CC)c(C)n3[B-](C#CCOCCOC)(C#CCOCCOC)[N+]2=C1C` [Ia-2] are 80%, 82000 M⁻¹ cm⁻¹, 522 nm and 488 nm.
Consider `COCCOCC#C[B-]1(C#CCOCCOC)n2c(/C=C/c3ccc(OCCOCCOC)cc3)cc(C)c2C(c2ccc(I)cc2)=C2C(C)=CC(/C=C/c3ccc(OCCOCCOC)cc3)=[N+]21` [Ia-3], for which, in series [1] (in dichloromethane), the Φ is 75%, the ε is 126600 M⁻¹ cm⁻¹, the λabs is reported as 646 nm and the λem was found to be 371 nm.
Take `CCOC(=O)c1ccc(C2=C3C(C)=C(CC)C(C)=[N+]3[B-](C#CCOCCOC)(C#CCOCCOC)n3c(C)c(CC)c(C)c32)cc1` [Ia-6]: in series [1] (in dichloromethane), the Φ is on record as 85%, the ε is 80000 M⁻¹ cm⁻¹, the λabs is 522 nm and the λem is 488 nm.
Turning to `COCCOCC#C[B-]1(C#CCOCCOC)n2c(C)cc(C)c2C(c2ccc(C(=O)O)cc2)=C2C(C)=CC(C)=[N+]21` [Ia-9], in series [2], the “water-soluble (in words)” value was “water-soluble” and the “solubility in water (in words)” value was “soluble in water”. In series [1] (setting [3]), the Φ is listed as 60* %, the ε is on record as 74000* M^−1 cm^−1, the λabs is 494* nm and the λem was 506* nm. Further, in series [1] (in dichloromethane), the Φ was 50%, the ε is 78500 M⁻¹ cm⁻¹, the λabs was 501 nm and the λem stood at 513 nm.
For `CCC1=C(C)C2=C(c3ccc(C(=O)O)cc3)c3c(C)c(CC)c(C)n3[B-](C#CCOCCOC)(C#CCOCCOC)[N+]2=C1C` [Ia-10], in series [2], the “water-soluble (in words)” value was “water-soluble” and the “solubility in water (in words)” value is on record as “soluble in water”. For the same compound, in series [1] (setting [3]), the Φ is reported as 70* %, the ε is reported as 65000* M^−1 cm^−1, the λabs is 517* nm and the λem was 530* nm.
On to `COCCOCC#C[B-]1(C#CCOCCOC)n2c(/C=C/c3ccc(OCCOCCOC)cc3)cc(C)c2C(c2ccc(C(=O)O)cc2)=C2C(C)=CC(/C=C/c3ccc(OCCOCCOC)cc3)=[N+]21` [Ia-11], for which, in series [1] (in dichloromethane), the Φ is given as 74%, the ε was 118000 M⁻¹ cm⁻¹, the λabs amounted to 647 nm and the λem was found to be 662 nm.
As for `COCCOCC#C[B-]1(C#CCOCCOC)n2c(/C=C/c3ccc(OCCOCCOC)cc3)cc(C)c2C(c2ccc(C(=O)O)cc2)=C2C(C)=CC(C)=[N+]21` [Ia-12], in series [2], the “water-soluble (in words)” value is “water-soluble” and the “solubility in water (in words)” value is “soluble in water”. In series [1] (setting [3]), the Φ is on record as 70* %, the ε is 70000* M^−1 cm^−1, the λabs is on record as 564* nm and the λem is 578* nm.
For `COCCOCC#C[B-]1(C#CCOCCOC)n2c(C)cc(C)c2C(c2ccc(C(=O)NCCN)cc2)=C2C(C)=CC(C)=[N+]21` [Ia-13], in series [1] (in dichloromethane), the Φ stood at 30%, the ε was 65000 M⁻¹ cm⁻¹, the λabs was 500 nm and the λem worked out at 513 nm.
In series [1] (in dichloromethane), `CCOC(=O)CNC(=O)c1ccc(C2=C3C(C)=CC(C)=[N+]3[B-](C#CCOCCOC)(C#CCOCCOC)n3c(C)cc(C)c32)cc1` [Ia-14] came in with a Φ of 80%, a ε of 84000 M⁻¹ cm⁻¹, a λabs of 501 nm and a λem of 511 nm.
In the case of `COCCOCC#C[B-]1(C#CCOCCOC)n2c(C)cc(C)c2C(c2ccc(C(=O)NCC(=O)O)cc2)=C2C(C)=CC(C)=[N+]21` [Ia-15], in series [2], the “water-soluble (in words)” value is “water-soluble”. Also, in series [1] (setting [3]), the Φ is recorded as 50* %, the ε was 62000* M^−1 cm^−1, the λabs is reported as 495* nm and the λem is reported as 507* nm. In series [1] (in dichloromethane), this compound returned a Φ of 60%, a ε of 67000 M⁻¹ cm⁻¹, a λabs of 501 nm and a λem of 511 nm.
Regarding `CCC1=C(C)C2=C(c3ccc(I)cc3)c3c(C)c(CC)c(C)n3[B-](C#CCN(C)C)(C#CCN(C)C)[N+]2=C1C` [Ic-0], the “ζ (fluorescence lifetime)” value in series [1] (CH2Cl2) is recorded as 6.6 ns. Also, in series [1] (CH2Cl2, 6.1×10^−7 M), the “Fluorescence λem” value is 533 nm and the “Fluorescence φ” value was 48%.
In the case of `CCC1=C(C)C2=C(c3ccc(I)cc3)c3c(C)c(CC)c(C)n3[B-](C#CC[N+](C)(C)CCCS(=O)(=O)[O-])(C#CC[N+](C)(C)CCCS(=O)(=O)[O-])[N+]2=C1C` [Ic-1], the “water-soluble (in words)” value in series [2] was “water-soluble”. For the same compound, in series [1] (EtOH), the “Fluorescence λem” value is on record as 532 nm and the “Fluorescence φ” value turned out to be 71%. For the same compound, the “fluorescence lifetime” value in series [1] (H2O) worked out at 7.0 ns. For the same compound, in series [1] (PBS buffer, 4.6×10^−7 M), the “Fluorescence λem” value came out at 530 nm and the “Fluorescence φ” value is 61%. Further, in series [1] (setting [3]), the Φ was 61* %, the ε is reported as 72000* M^−1 cm^−1, the λabs is on record as 519* nm and the λem is listed as 530* nm.
Consider `CCOC(=O)c1ccc(C2=C3C(C)=C(CC)C(C)=[N+]3[B-](C#CC[N+](C)(C)CCCS(=O)(=O)[O-])(C#CC[N+](C)(C)CCCS(=O)(=O)[O-])n3c(C)c(CC)c(C)c32)cc1` [Ic-2], for which, in series [1] (EtOH), the “Fluorescence λem” value was determined as 533 nm and the “Fluorescence φ” value came out at 45%.
`CCC1=C(C)C2=C(c3ccc(C#Cc4ccc5ccc6c(C(=O)OCCOCCOC)ccc7ccc4c5c76)cc3)c3c(C)c(CC)c(C)n3[B-](C#CC[N+](C)(C)CCCS(=O)(=O)[O-])(C#CC[N+](C)(C)CCCS(=O)(=O)[O-])[N+]2=C1C` [Ic-3]: in series [1] (EtOH), the “Fluorescence λem” value stood at 533 nm and the “Fluorescence φ” value is reported as 39%.

(Values after patent publication US8476461B2, “Dipyrromethene-boron hydrophilic fluorescent compounds” (Centre National de la Recherche Scientifique (C.N.R.S.), priority 2008, dated 2013).)
